The values below come from US10660877B2 (BRISTOL-MYERS SQUIBB COMPANY, priority 2016, dated 2020).

One experiment has as its target human TLR8 (Homo sapiens (Human), UniProt Q9NR97). In words: TLR8 inhibition reporter assay (HEK-Blue cells, SEAP reporter, R848 stimulation).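 Further: compounds tested from 0.05 nM to 50 µM, 22 h at 37 °C, SEAP measured with HEK-Blue Detection, inhibition relative to agonist plus DMSO versus a known inhibitor.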
The next experiment concerns the target human TLR9 (Homo sapiens (Human), UniProt Q9NR96). The experiment in a line: TLR9 inhibition reporter assay (HEK-Blue cells, SEAP reporter, ODN2006 stimulation).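 Further: compounds tested over 0.05 nM to 50 µM, 22 h incubation, inhibition taken as SEAP signal drop from agonist plus DMSO wells toward a known inhibitor control.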 A general note: A reporter such as luciferase makes a cellular process visible.
A further experiment addresses human TLR7 (Homo sapiens (Human), UniProt Q9NYK1). The experiment in a line: TLR7 inhibition reporter assay (HEK-Blue cells, SEAP reporter, gardiquimod stimulation). Format: cell-based.
[1] abbreviates: read-out: TLR8 IC50, HEK-Blue cells, R848 15.9 μM.
Where [2] appears, read: read-out: TLR9 IC50, HEK-Blue cells, ODN2006 5 nM.
The mark [3] stands for this setting: HEK-Blue cells, gardiquimod 7.5 μM.
The mark [4] stands for this setting: read-out: TLR8 IC50, HEK-Blue cells overexpressing human TLR8, R848 15.9 μM.
Where [5] appears, read: read-out: TLR9 IC50, HEK-Blue cells overexpressing human TLR9, ODN2006 5 nM.
Where [6] appears, read: HEK-Blue cells overexpressing human TLR7, gardiquimod 7.5 μM.

pIC50: −log10 of the molar value. Where two headings read alike, the source gives them in different places.

Sequence of human TLR9 (Q9NR96 26-1032): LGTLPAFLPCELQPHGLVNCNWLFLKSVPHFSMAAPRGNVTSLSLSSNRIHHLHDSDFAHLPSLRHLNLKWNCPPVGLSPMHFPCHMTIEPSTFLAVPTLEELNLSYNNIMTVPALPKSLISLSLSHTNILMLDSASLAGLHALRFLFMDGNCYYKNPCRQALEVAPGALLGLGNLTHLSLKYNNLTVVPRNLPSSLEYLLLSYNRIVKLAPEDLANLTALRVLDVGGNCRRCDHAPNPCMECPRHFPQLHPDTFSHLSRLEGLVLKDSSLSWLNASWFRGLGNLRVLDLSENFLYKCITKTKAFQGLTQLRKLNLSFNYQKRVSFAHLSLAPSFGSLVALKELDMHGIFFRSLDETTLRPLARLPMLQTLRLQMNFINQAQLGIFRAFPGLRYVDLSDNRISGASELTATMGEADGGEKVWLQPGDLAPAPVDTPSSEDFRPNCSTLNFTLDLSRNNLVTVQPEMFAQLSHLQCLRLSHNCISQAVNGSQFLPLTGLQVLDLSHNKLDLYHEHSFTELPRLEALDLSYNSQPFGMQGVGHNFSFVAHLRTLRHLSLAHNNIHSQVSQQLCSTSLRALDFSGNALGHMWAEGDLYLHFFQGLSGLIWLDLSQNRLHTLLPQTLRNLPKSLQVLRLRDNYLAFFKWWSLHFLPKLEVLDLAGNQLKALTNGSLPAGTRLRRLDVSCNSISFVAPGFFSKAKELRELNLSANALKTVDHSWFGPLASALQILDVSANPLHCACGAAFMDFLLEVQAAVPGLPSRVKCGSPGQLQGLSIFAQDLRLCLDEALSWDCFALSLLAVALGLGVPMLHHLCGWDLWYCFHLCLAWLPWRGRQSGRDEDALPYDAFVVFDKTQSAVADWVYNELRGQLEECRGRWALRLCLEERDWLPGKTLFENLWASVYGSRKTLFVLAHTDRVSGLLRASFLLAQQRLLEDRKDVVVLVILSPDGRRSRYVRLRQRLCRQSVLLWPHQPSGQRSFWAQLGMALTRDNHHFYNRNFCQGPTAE
Sequence of human TLR7 (Q9NYK1 27-1049): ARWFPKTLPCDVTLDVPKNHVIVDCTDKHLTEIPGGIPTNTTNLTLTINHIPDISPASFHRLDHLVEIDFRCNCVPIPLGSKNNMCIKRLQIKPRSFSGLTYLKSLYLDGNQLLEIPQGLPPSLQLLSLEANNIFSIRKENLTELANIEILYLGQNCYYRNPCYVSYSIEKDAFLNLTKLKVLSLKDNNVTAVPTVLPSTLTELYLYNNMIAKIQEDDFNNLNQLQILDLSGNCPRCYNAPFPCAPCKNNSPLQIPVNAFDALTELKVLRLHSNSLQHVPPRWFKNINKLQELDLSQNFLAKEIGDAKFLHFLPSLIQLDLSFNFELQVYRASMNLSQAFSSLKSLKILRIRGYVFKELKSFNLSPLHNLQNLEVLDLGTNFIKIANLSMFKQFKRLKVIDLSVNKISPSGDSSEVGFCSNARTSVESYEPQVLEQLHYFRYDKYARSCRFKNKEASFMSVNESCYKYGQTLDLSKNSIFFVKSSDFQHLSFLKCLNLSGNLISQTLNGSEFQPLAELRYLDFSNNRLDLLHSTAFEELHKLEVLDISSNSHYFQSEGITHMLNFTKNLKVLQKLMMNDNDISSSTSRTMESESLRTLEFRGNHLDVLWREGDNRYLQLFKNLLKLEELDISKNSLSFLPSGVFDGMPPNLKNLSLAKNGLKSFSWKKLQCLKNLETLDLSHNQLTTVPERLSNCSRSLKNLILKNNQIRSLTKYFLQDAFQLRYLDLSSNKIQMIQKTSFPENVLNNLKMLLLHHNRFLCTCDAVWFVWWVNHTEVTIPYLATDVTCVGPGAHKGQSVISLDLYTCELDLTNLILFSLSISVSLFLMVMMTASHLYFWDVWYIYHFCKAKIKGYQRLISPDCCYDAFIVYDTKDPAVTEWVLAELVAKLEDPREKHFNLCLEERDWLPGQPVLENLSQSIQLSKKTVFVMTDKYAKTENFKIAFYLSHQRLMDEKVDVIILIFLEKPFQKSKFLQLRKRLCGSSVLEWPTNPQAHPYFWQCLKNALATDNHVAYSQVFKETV
Sequence of human TLR8 (Q9NR97 27-1041): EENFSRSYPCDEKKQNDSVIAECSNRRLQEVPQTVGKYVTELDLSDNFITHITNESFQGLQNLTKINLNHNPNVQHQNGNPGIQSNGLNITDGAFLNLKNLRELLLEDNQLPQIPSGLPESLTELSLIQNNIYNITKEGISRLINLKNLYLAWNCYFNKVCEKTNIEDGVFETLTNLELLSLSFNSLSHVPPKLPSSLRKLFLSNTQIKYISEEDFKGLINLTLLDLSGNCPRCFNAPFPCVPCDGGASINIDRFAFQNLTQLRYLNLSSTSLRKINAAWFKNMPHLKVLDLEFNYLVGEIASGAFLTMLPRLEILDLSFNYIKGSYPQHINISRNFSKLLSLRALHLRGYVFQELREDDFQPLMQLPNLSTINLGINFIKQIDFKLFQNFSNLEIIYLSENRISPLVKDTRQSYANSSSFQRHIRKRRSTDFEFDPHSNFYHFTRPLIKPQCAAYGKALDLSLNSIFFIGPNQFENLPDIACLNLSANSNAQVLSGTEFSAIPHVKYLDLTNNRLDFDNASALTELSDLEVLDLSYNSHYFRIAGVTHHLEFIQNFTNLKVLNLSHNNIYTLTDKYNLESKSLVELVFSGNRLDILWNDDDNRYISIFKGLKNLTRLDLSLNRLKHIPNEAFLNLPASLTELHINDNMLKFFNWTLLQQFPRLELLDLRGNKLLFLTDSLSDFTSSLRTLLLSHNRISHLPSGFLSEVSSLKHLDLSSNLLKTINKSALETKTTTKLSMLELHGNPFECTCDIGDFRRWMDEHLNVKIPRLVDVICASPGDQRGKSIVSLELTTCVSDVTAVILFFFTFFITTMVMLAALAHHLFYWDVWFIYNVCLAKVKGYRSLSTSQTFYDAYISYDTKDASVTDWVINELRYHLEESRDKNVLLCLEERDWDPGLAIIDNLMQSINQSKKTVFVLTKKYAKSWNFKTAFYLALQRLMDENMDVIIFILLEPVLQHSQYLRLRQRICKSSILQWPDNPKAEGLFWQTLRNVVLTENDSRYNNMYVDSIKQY

As a reminder, the pIC50 is the negative decadic logarithm of the IC50, by convention in mol/L. On to `Cc1cc(-c2[nH]c3ccc(C4CCN(C(=O)C(=O)O)CC4)cc3c2C(C)C)cc(C)n1` [Example 859, 2-(4-(2-(2,6-dimethylpyridin-4-yl)-3-isopropyl-1H-indol-5-yl)piperidin-1-yl)-2-oxoacetic acid], for which the negative-log IC50 (pIC50) is 6.27 on human TLR8 (setting [1]), less than 4.30 on human TLR9 (setting [2]) and 7.36 on human TLR7 (setting [3]).
Regarding `Cc1cc(-c2[nH]c3ccc(C4CCN(Cc5nncn5C)CC4)cc3c2C(C)C)c(C)cn1` [Example 736, 2-(2,5-dimethylpyridin-4-yl)-3-isopropyl-5-(1-((4-methyl-4H-1,2,4-triazol-3-yl)methyl)piperidin-4-yl)-1H-indole], the figures for the pIC50 at human TLR8 (setting [4]), on human TLR9 (setting [5]) and on human TLR7 (setting [6]) were 8.19, 4.70 and 7.37, respectively.
With `CCc1c(-c2ccnc(F)c2)[nH]c2ccc(C3CCN(C4CCN(CC(C)C)CC4)CC3)cc12` [Example 759, 3-ethyl-2-(2-fluoropyridin-4-yl)-5-(1′-isobutyl-[1,4′-bipiperidin]-4-yl)-1H-indole], the figures for the pIC50 at human TLR8 (setting [4]), at human TLR9 (setting [5]) and on human TLR7 (setting [6]) were 6.59, 6.18 and 5.82, respectively.
In the case of `Cc1cc(-c2[nH]c3ccc(C4CCN(C(=O)CN5CC6CCC(C5)O6)CC4)cc3c2C(C)C)cc(C)n1` [Example 389, 2-(8-oxa-3-azabicyclo[3.2.1]octan-3-yl)-1-(4-(2-(2,6-dimethylpyridin-4-yl)-3-isopropyl-1H-indol-5-yl)piperidin-1-yl)ethan-1-one], the pIC50 was 7.50 on human TLR8 (setting [4]), 6.06 on human TLR9 (setting [5]) and 7.99 at human TLR7 (setting [6]).
For the compound `CCc1c(-c2ccnc(C)c2)[nH]c2ccc(C3CCN(C(C)C)CC3)cc12` [Example 672, 3-ethyl-5-(1-isopropylpiperidin-4-yl)-2-(2-methylpyridin-4-yl)-1H-indole], the pIC50 was 6.93 on human TLR8 (setting [4]), 6.05 on human TLR9 (setting [5]) and 6.60 on human TLR7 (setting [6]).
For `Cc1cc(-c2[nH]c3ccc(C4CCN(C(=O)c5cscn5)CC4)cc3c2C(C)C)ccn1` [Example 609, (4-(3-isopropyl-2-(2-methylpyridin-4-yl)-1H-indol-5-yl)piperidin-1-yl)(thiazol-4-yl)methanone] the same measures were 6.67, 4.67 and 7.42.
Consider `Cc1cc(-c2[nH]c3ccc(C4CCN(C(CF)CF)CC4)cc3c2C(C)C)ccn1` [Example 865, 5-(1-(1,3-difluoropropan-2-yl)piperidin-4-yl)-3-isopropyl-2-(2-methylpyridin-4-yl)-1H-indole], for which the values for the pIC50 on human TLR8 (setting [1]), on human TLR9 (setting [2]) and against human TLR7 (setting [3]) were 7.55, 5.99 and 7.44, respectively.
For the compound `Cc1cc(-c2[nH]c3ccc(C4CCN(CC(=O)N(C)CC(C)(C)O)CC4)cc3c2C(C)C)cc(C)n1` [Example 305, 2-(4-(2-(2,6-dimethylpyridin-4-yl)-3-isopropyl-1H-indol-5-yl)piperidin-1-yl)-N-(2-hydroxy-2-methylpropyl)-N-methylacetamide], the negative logarithm of the IC50 (pIC50) is 7.95 at human TLR8 (setting [4]), 6.57 on human TLR9 (setting [5]) and 8.31 against human TLR7 (setting [6]).
Consider `Cc1cc(-c2[nH]c3ccc(C4CCN(S(C)(=O)=O)CC4)cc3c2C(C)C)ccn1` [Example 550, 3-isopropyl-2-(2-methylpyridin-4-yl)-5-(1-(methylsulfonyl)piperidin-4-yl)-1H-indole], for which the pIC50 at human TLR8 (setting [4]) is 6.79; on human TLR9 (setting [5]), less than 4.30; against human TLR7 (setting [6]) it was 7.41.
With `Cc1cc(-c2[nH]c3ccc(C4CCN(CC(=O)NC5(C)CC5)CC4)cc3c2C(C)C)cc(C)n1` [Example 251, 2-(4-(2-(2,6-dimethylpyridin-4-yl)-3-isopropyl-1H-indol-5-yl)piperidin-1-yl)-N-(1-methylcyclopropyl)acetamide], the pIC50 on human TLR8 (setting [4]) was 8.05; on human TLR9 (setting [5]), 6.09; on human TLR7 (setting [6]) it was 8.37.
With `CNCCN1CCC(c2ccc3[nH]c(-c4cc(C)nc(C)c4)c(CC(F)F)c3c2)CC1` [Example 541, 2-(4-(3-(2,2-difluoroethyl)-2-(2,6-dimethylpyridin-4-yl)-1H-indol-5-yl)piperidin-1-yl)-N-methylethan-1-amine], the figures for the pIC50 at human TLR8 (setting [4]), at human TLR9 (setting [5]) and on human TLR7 (setting [6]) were 7.65, 6.96 and 7.94, respectively.
Turning to `Cc1cc(-c2[nH]c3ccc(C4CCN(C(=O)C5CC(=O)N(C(C)(C)C)C5)CC4)cc3c2C(C)C)ccn1` (stereo not drawn) [Example 613, 1-(tert-butyl)-4-(4-(3-isopropyl-2-(2-methylpyridin-4-yl)-1H-indol-5-yl)piperidine-1-carbonyl)pyrrolidin-2-one], the pIC50 at human TLR8 (setting [4]) was 6.69; on human TLR9 (setting [5]), 5.12; against human TLR7 (setting [6]), 7.26.
Regarding `CCc1c(-c2ccnc(OC)c2)[nH]c2ccc(C3CCN(C4CCCN(C5CCCC5)CC4)CC3)cc12` (stereo not drawn) [Example 793, 5-(1-(1-cyclopentylazepan-4-yl)piperidin-4-yl)-3-ethyl-2-(2-methoxypyridin-4-yl)-1H-indole], the values for the pIC50 on human TLR8 (setting [4]), at human TLR9 (setting [5]) and against human TLR7 (setting [6]) were 7.53, 6.60 and 6.43, respectively.
In the case of `Cc1cc(-c2[nH]c3ccc(C4CCN(C(=O)CN5CC(C(F)(F)F)C[C@@H]5CO)CC4)cc3c2C(C)C)cc(C)n1` (stereo partly drawn) [Example 404, 1-(4-(2-(2,6-dimethylpyridin-4-yl)-3-isopropyl-1H-indol-5-yl)piperidin-1-yl)-2-((2R)-2-(hydroxymethyl)-4-(trifluoromethyl)pyrrolidin-1-yl)ethan-1-one], the pIC50 on human TLR8 (setting [4]) is 6.36; on human TLR9 (setting [5]), 4.95; on human TLR7 (setting [6]), 7.19.
As for `CCc1c(-c2ccnc(OC)c2)[nH]c2ccc(C3CCN(C4C[C@H]5CCC[C@@H](C4)N5C)CC3)cc12` (stereo partly drawn) [Example 798, 3-ethyl-2-(2-methoxypyridin-4-yl)-5-(1-((1R,3r,5S)-9-methyl-9-azabicyclo[3.3.1]nonan-3-yl)piperidin-4-yl)-1H-indole], the negative logarithm of the IC50 (pIC50) on human TLR8 (setting [4]) is 6.78; at human TLR9 (setting [5]), 7.17; against human TLR7 (setting [6]), 6.20.
On to `Cc1cc(-c2[nH]c3ccc(C4CCN(CC(=O)N5CCC6(CC5)COC6)CC4)cc3c2C(C)C)cc(C)n1` [Example 286, 2-(4-(2-(2,6-dimethylpyridin-4-yl)-3-isopropyl-1H-indol-5-yl)piperidin-1-yl)-1-(2-oxa-7-azaspiro[3.5]nonan-7-yl)ethan-1-one], for which the pIC50 on human TLR8 (setting [4]) is 7.85; on human TLR9 (setting [5]), 6.58; on human TLR7 (setting [6]), 8.21.
Regarding `COCC(=O)N1CCC(c2ccc3[nH]c(-c4cc(C)nc(C)c4)c(C(C)C)c3c2)CC1` [Example 115, 1-(4-(2-(2,6-dimethylpyridin-4-yl)-3-isopropyl-1H-indol-5-yl)piperidin-1-yl)-2-methoxyethan-1-one], the pIC50 was 6.88 at human TLR8 (setting [4]), 4.35 at human TLR9 (setting [5]) and 8.27 at human TLR7 (setting [6]).
Consider `Cc1cc(-c2[nH]c3ccc(C4CCN(CC(O)C(C)C)CC4)cc3c2C(C)C)cc(C)n1` (stereo not drawn) [Example 855, 1-(4-(2-(2,6-dimethylpyridin-4-yl)-3-isopropyl-1H-indol-5-yl)piperidin-1-yl)-3-methylbutan-2-ol], for which the values for the pIC50 on human TLR8 (setting [1]), on human TLR9 (setting [2]) and on human TLR7 (setting [3]) were 8.82, 5.48 and 7.68, respectively.
In the case of `Cc1cc(-c2[nH]c3ccc(C4CCNCC4)cc3c2C(C)C)c(N)cn1` [Example 10, 4-(3-isopropyl-5-(piperidin-4-yl)-1H-indol-2-yl)-6-methylpyridin-3-amine], the pIC50 is 8.20 on human TLR8 (setting [4]), 6.45 on human TLR9 (setting [5]) and 8.29 at human TLR7 (setting [6]).
